This passage reports IC50 results from US20170275270A1, “BENZYL SUBSTITUTED INDAZOLES” (Bayer Pharma Aktiengesellschaft, priority 2014, published 2017).

pIC50: −log10 of the molar value. Counter-ions that a name gives are not always drawn. Like-named read-outs stand apart in the source and are kept apart here.

The target of experiment [1] is T1, catalytic domain of human Bub1 (amino acids 704-1085) (Homo sapiens, UniProt O43683).
T1 construct: catalytic domain of human Bub1 (amino acids 704-1085); His6 (N); made in house; host or cells: Hi5 insect cells
The experiment is described as follows: Bub1 kinase assay (TR-FRET). It counts as biochemical. In a few lines: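 TR-FRET read-out (Eu-anti-mouse IgG/anti-phosphoserine antibody to streptavidin-XL665 on biotinylated peptide) after EDTA stop and 1 h complex formation at 22° C. Kinase reaction ran 60 min at 22° C with 1:3.4 serial dilutions from 2 mM DMSO stocks. IC50 from 4-parameter logistic fit of normalized inhibition.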
(In general: TR-FRET usually uses a lanthanide donor and a delayed reading to cut background.)

The next experiment has as its target Bub1 (Homo sapiens, UniProt O43683). The experiment is described as follows: Formation-Assay: phosphorylation status of histone 2A by inhibition of kinase activity of Bub1. In kind it is cell-based. Conditions: Biological Assay 4.1: H2A Formation IC50, co-treatment with Nocodazole 1 μg/ml, 16 h. Put shortly: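 Cells co-treated 16 h with Nocodazole (1 μg/ml) and compound (3 nM–10 μM), then fixed and immunostained for phospho-H2A, read by infrared imaging (800 nm) normalised to cell stain (700 nm). Nocodazole-only set as 100%, untreated cells as 0%.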

A further experiment deals with HeLa. The experiment can be described thus: Proliferation assay (HeLa cell line).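 Note: crystal violet staining of cell number, scaled between a plate stained before dosing (0%) and cells left untreated (100%), compounds tested at 0.001-10 µM, IC50 via 4-parameter fit.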 Conditions: Homo sapiens, 96 h, read-out: Biological Assay 2: Proliferation assay (HeLa cell line) median IC50.
Experiment [2] has as its system HeLa human cervical tumor cells. The experiment can be described thus: Proliferation assay (HeLa+Paclitaxel).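 Note: compounds at 0.001-10 µM added 4 h after paclitaxel, 92 h exposure, absorbance normalized to zero-point plate (0%) and untreated cells (100%), IC50 from 4-parameter fit.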 The conditions noted are these: read-out: Biological Assay 3: HeLa + Paclitaxel IC50, 3 nM paclitaxel, crystal violet.
Setting [3] is: Biological Assay 1: Bub1 kinase assay median IC50, 10 μM ATP.
The mark [4] stands for this setting: 10 μM ATP, read-out: Biological Assay 1: Bub1 kinase assay median IC50.

Chain of Bub1 (O43683 whole entry): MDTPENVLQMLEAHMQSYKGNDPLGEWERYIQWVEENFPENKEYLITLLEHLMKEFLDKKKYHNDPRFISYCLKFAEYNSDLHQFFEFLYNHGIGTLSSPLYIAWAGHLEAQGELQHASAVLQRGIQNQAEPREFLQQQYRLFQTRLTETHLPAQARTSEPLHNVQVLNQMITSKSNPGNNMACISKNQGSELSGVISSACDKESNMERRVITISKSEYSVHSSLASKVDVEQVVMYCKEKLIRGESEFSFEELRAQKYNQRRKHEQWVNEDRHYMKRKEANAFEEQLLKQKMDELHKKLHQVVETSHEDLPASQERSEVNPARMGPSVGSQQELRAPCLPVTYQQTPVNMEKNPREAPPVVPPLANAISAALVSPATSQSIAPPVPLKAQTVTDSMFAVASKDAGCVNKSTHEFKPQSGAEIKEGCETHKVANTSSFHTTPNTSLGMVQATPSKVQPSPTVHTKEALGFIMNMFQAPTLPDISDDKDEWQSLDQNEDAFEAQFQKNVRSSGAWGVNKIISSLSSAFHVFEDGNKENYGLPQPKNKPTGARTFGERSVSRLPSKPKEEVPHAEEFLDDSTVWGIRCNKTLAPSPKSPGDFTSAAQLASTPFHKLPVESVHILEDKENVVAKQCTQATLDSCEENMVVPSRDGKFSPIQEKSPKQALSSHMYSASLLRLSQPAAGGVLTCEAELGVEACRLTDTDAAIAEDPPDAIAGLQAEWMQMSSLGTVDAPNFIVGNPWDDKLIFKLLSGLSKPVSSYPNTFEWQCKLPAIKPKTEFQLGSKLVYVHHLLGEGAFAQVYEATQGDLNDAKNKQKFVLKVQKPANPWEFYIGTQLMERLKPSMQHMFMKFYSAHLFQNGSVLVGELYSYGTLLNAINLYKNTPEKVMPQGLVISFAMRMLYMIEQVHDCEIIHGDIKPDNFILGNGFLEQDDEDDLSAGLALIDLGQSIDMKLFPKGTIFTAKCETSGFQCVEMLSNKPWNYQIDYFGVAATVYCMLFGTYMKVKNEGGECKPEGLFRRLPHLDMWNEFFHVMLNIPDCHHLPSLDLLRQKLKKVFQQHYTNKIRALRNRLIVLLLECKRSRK
T1 sequence (O43683 704-1085): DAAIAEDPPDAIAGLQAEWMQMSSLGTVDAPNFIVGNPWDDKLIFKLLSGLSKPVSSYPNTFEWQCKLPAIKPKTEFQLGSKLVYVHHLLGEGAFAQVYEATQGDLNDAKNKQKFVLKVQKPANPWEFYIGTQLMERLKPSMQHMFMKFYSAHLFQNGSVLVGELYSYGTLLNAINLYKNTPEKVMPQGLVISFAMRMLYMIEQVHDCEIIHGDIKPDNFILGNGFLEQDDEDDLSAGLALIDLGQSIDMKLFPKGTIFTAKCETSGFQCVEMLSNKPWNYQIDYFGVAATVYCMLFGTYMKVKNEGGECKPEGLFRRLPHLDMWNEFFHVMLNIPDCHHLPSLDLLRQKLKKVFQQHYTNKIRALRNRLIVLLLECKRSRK

Take `CCOc1cc(F)c(Cn2nc(-c3ncc(C4CCN(CC(F)(F)F)CC4)c(Nc4cc(C)ncc4C)n3)c3ccccc32)c(F)c1` [Example 2-20-6, N-(2,5-dimethylpyridin-4-yl)-2-[1-(4-ethoxy-2,6-difluorobenzyl)-1H-indazol-3-yl]-5-[1-(2,2,2-trifluoroethyl)piperidin-4-yl]pyrimidin-4-amine]: the pIC50 in experiment [1] (setting [3]) was 6.59; at Bub1, 7.09; with HeLa, 5.49; in experiment [2], 6.89.
`CCOc1cc(F)c(Cn2nc(-c3nc(COC)cc(Nc4ccnc(C)c4)n3)c3ccccc32)c(F)c1` [Example 2-12-48, 2-[1-(4-ethoxy-2,6-difluorobenzyl)-1H-indazol-3-yl]-6-(methoxymethyl)-N-(2-methylpyridin-4-yl)pyrimidin-4-amine]: the pIC50 was 7.68 in experiment [1] (setting [3]), 5.96 on Bub1, 5.92 in the experiment with HeLa and 6.74 in experiment [2].
For the compound `CCOc1cc(F)c(Cn2nc(-c3ncc(CC4CNC4)c(Nc4ccncc4)n3)c3ccccc32)c(F)c1` [Example 2-9-4, 5-(azetidin-3-ylmethyl)-2-[1-(4-ethoxy-2,6-difluorobenzyl)-1H-indazol-3-yl]-N-(pyridin-4-yl)pyrimidin-4-amine, salt with hydrochloric acid], the pIC50 in experiment [1] (setting [4]) is 8.11; on Bub1, 6.36; in the experiment with HeLa, 5.72; in experiment [2] it was 6.38.
Take `CCOc1cc(F)c(Cn2nc(-c3ncc(OCCS(C)(=O)=O)c(Nc4ccncc4)n3)c3ccccc32)c(F)c1` [Example 3-3-1, 2-[1-(4-ethoxy-2,6-difluorobenzyl)-1H-indazol-3-yl]-5-[2-(methylsulfonyl)ethoxy]-N-(pyridin-4-yl)pyrimidin-4-amine, reference compound]: the pIC50 in experiment [1] (setting [3]) was 8.23; at Bub1 it was 6.30; in the experiment with HeLa, 5.39; in experiment [2], 5.96.
As to `CCOc1cc(F)c(Cn2nc(-c3ncc(CCN)c(Nc4ccnc(NC(C)=O)c4)n3)c3ccccc32)c(F)c1` [Example 2-9-13, N-[4-({5-(2-aminoethyl)-2-[1-(4-ethoxy-2,6-difluorobenzyl)-1H-indazol-3-yl]pyrimidin-4-yl}amino)pyridin-2-yl]acetamide, salt with hydrochloric acid], the pIC50 in experiment [1] (setting [4]) was 8.15; at Bub1, 6.80; with HeLa, 6.00; in experiment [2] it was 6.82.
As for `CCOc1cc(F)c(Cn2nc(-c3ncc(CCN4CCCC(F)(F)C4)c(Nc4ccncc4)n3)c3ccccc32)c(F)c1` [Example 2-2-16, 5-[2-(3,3-difluoropiperidin-1-yl)ethyl]-2-[1-(4-ethoxy-2,6-difluorobenzyl)-1H-indazol-3-yl]-N-(pyridin-4-yl)pyrimidin-4-amine], the pIC50 is 7.82 in experiment [1] (setting [3]), 5.72 at Bub1, 5.16 in the experiment on HeLa and 6.64 in experiment [2].
For `CCOc1cc(F)c(Cn2nc(-c3nc(C)c(Cl)c(Nc4ccncc4)n3)c3ccccc32)c(F)c1` [Example 2-12-23, 5-chloro-2-[1-(4-ethoxy-2,6-difluorobenzyl)-1H-indazol-3-yl]-6-methyl-N-(pyridin-4-yl)pyrimidin-4-amine], the pIC50 in experiment [1] (setting [4]) is 7.64; on Bub1, 8.00; in the experiment on HeLa, less than 5.00; in experiment [2] it was 6.42.
For `CCOc1cc(F)c(Cn2nc(-c3nc(CN4CCOCC4)cc(Nc4ccnc(NC(C)=O)c4)n3)c3ccccc32)c(F)c1` [Example 2-12-14, N-[4-({2-[1-(4-ethoxy-2,6-difluorobenzyl)-1H-indazol-3-yl]-6-(morpholin-4-ylmethyl)pyrimidin-4-yl}amino)pyridin-2-yl]acetamide], in that order: 8.06, 7.96, 5.74 and 7.00.
Take `CCOc1cc(F)c(Cn2nc(-c3ncc(C4CCNCC4)c(Nc4ccncc4)n3)c3ccccc32)c(F)c1` [Example 2-17-1, 2-[1-(4-ethoxy-2,6-difluorobenzyl)-1H-indazol-3-yl]-5-(piperidin-4-yl)-N-(pyridin-4-yl)pyrimidin-4-amine]: the pIC50 in experiment [1] (setting [3]) was 8.21; at Bub1 it was 7.92; with HeLa, 5.96; in experiment [2], 6.77.
For `CCOc1cc(F)c(Cn2nc(-c3ncc(C4CCN(CC(F)(F)F)CC4)c(Nc4ccncn4)n3)c3ccccc32)c(F)c1` [Example 2-20-3, 2-[1-(4-ethoxy-2,6-difluorobenzyl)-1H-indazol-3-yl]-N-(pyrimidin-4-yl)-5-[1-(2,2,2-trifluoroethyl)piperidin-4-yl]pyrimidin-4-amine], in that order: 7.59, 8.66, less than 5.00 and 6.01.
As to `CCOc1cc(F)c(Cn2nc(-c3nc4c(c(Nc5ccnc(C)n5)n3)CC(C)(C)CC4)c3ccccc32)c(F)c1` [Example 2-12-66, 2-[1-(4-ethoxy-2,6-difluorobenzyl)-1H-indazol-3-yl]-6,6-dimethyl-N-(2-methylpyrimidin-4-yl)-5,6,7,8-tetrahydroquinazolin-4-amine], the pIC50 was 7.01 in experiment [1] (setting [4]), 7.66 at Bub1, less than 5.00 in the experiment with HeLa and 7.00 in experiment [2].
Taken in the same sequence, the figures for `CCOc1cc(F)c(Cn2nc(-c3ncc(CC4CNC4)c(Nc4ccnc(C(F)F)c4)n3)c3ccccc32)c(F)c1` [Example 2-9-9, 5-(azetidin-3-ylmethyl)-N-[2-(difluorometh-yl)pyridin-4-yl]-2-[1-(4-ethoxy-2,6-difluorobenzyl)-1H-indazol-3-yl]pyrimidin-4-amine, salt with hydrochloric acid] were 7.28, 8.57, 5.64 and 6.72.
Taken in the same sequence, the figures for `CCOc1cc(F)c(Cn2nc(-c3nc4c(c(Nc5ccncc5OC)n3)CC(C)(C)CC4)c3ccccc32)c(F)c1` [Example 2-12-67, 2-[1-(4-ethoxy-2,6-difluorobenzyl)-1H-indazol-3-yl]-N-(3-methoxypyridin-4-yl)-6,6-dimethyl-5,6,7,8-tetrahydroquinazolin-4-amine] were 7.18, 7.66, 5.36 and 6.82.
Consider `CCOc1cc(F)c(Cn2nc(-c3nc4c(c(Nc5ccnc(NC(C)=O)c5)n3)CCC4)c3ccccc32)c(F)c1` [Example 2-12-18, N-[4-({2-[1-(4-ethoxy-2,6-difluorobenzyl)-1H-indazol-3-yl]-6,7-dihydro-5H-cyclopenta[d]pyrimidin-4-yl}amino)pyridin-2-yl]acetamide], for which the pIC50 in experiment [1] (setting [4]) is 8.08; at Bub1 it was 8.39; with HeLa it was 5.70; in experiment [2] it was 6.60.
Regarding `CCOc1cc(F)c(Cn2nc(-c3ncc(CCCN4CCOCC4)c(Nc4ccncc4C(F)(F)F)n3)c3ccccc32)c(F)c1` [Example 2-2-14, 2-[1-(4-ethoxy-2,6-difluorobenzyl)-1H-indazol-3-yl]-5-[3-(morpholin-4-yl)propyl]-N-[3-(trifluoromethyl)pyridin-4-yl]pyrimidin-4-amine], the pIC50 is 6.89 in experiment [1] (setting [3]), 5.41 on Bub1, 5.11 in the experiment on HeLa and 6.85 in experiment [2].
